Experimental data reported in patent publication US6063784A, “Heteroaryloxyethylamines, method of preparation, application as medicine and pharmaceutical compositions containing them” (Societe de Conseils de Recherches et D'Applications …, priority 1996, dated 2000).

These compounds were tested against T1, serotonergic 5-HT1A receptors (Rattus norvegicus, UniProt P19327) (assay: Affinity for the 5-HT1A receptor: inhibition of [3H]8-OH-DPAT binding to rat cerebral cortex membranes). Conditions: [3H]8-OH-DPAT 1 nM, 30 min at 25° C., Tris-HCl 50 mM, pH=7.4.
T1 construct: from tissue; host or cells: cerebral cortex membranes of male Sprague Dawley rats
T1 sequence (P19327 1-422): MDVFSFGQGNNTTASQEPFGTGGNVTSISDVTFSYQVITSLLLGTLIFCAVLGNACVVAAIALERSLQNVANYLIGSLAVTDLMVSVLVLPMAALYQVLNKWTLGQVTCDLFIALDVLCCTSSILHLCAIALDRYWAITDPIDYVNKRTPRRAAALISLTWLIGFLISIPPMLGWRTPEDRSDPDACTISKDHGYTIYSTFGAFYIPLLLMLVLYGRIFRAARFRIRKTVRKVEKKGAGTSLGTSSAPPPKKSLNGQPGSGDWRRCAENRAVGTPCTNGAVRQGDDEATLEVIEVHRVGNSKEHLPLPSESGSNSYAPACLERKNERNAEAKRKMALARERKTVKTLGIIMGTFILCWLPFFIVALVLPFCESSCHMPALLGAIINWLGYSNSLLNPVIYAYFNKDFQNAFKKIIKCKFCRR
Parameters: species or system rat (male Sprague Dawley)
Protocol: The affinity of the compounds for serotonergic 5-HT1A receptors is determined by measuring the inhibition of [3H]8-hydroxy-2(di-n-propylamino)tetralin([3H]8-OH-DPAT) bound to the cerebral cortex of the rat, according to the method of Peroutka and his coworkers [(J. Neurochem., 47, 529 (1986)].
Cerebral cortices of male Sprague Dawley rats are homogenised in Tris-HCl 50 mM, pH=7.4 and centrifuged at 40,000 g for 10 min at 4° C. Pellets are resuspended in the same buffer and incubated for 10 min at 37° C., and the homogenised products are centrifuged again at 40,000 g for 10 min at 4° C.
Competitive inhibition tests of [3H]8-OH-DPAT binding are carried out three times with unlabelled competitors, with concentrations between 100 pM and 100 µM. Cerebral cortex membranes of rats (10 mg wet weight/ml) are incubated with [3H]8-OH-DPAT (1 nM) for 30 min at 25° C. in Tris-HCl 50 mM, pH=7.4 containing 4 mM of CaCl2, 10 µM of pargyline and 0.1% of ascorbic acid.
The bound [3H]8-OH-DPAT is separated from free [3H]8-OH-DPAT by immediate filtration by means of Whatman GF/B glass fibre filters using a Brandel cell recovery device. The filters are washed three times with the same buffer at 0-4° C. and their radioactivity is studied by means of a liquid scintillation spectrometer.
The specific binding is obtained by subtracting the binding determined in the presence of 1 M of 8-OH-DPAT from the total binding. The characteristics of the binding are analysed by iterative analysis of the non-linear regression by computer, using the Ligand program [Munson and Rodbard, Anal. Biochem., 107, 220 (1980)].

SMILES | Ki
CC(C)(C)C(=O)NCCCCNCCOc1cccc2cccnc12 [Compound 1, N-[4-({2-(8-quinolyloxy)ethyl}amino)butyl]tert-butanamide] | 0.081 nM
CC(C)(C)CC(=O)NCCCCNCCOc1cccc2cccnc12 [Compound 2] | 0.12 nM
O=C(NCCCCNCCOc1cccc2cccnc12)C1CCCCC1 [Compound 3, N-[4-({2-(8-quinolyloxy)ethyl}amino)butyl]cyclohexanamide] | 0.15 nM
CC1(C(=O)NCCCCNCCOc2cccc3cccnc23)CCCCC1 [Compound 4] | 0.11 nM
O=C(NCCCCNCCOc1cccc2cccnc12)c1ccccc1 [Compound 5, N-[4-({2-(8-quinolyloxy)ethyl}amino)butyl]benzamide] | 0.055 nM
CC(C)(C)CC(=O)NCCCCNCCOc1ccc(Cl)c2cccnc12 [Compound 6] | 0.98 nM
Cc1ccc2cccc(OCCNCCCCNC(=O)CC(C)(C)C)c2n1 [Compound 7] | 0.35 nM
O=C(NCCCCNCCOc1cccc2nccnc12)c1ccccc1 [Compound 9, N-[4-({2-(5-quinoxalyloxy)ethyl}amino)butyl]benzamide] | 0.75 nM
O=C(CCCCNCCOc1cccc2cccnc12)NC1CCCCC1 [Compound 11, N-cyclohexyl-5-[(2-{8-quinolyloxy}ethyl)amino]pentanamide] | 0.072 nM
CC(C)(C)CNC(=O)CCCCNCCOc1cccc2cccnc12 [Compound 12, N-neopentyl-5-[(2-{8-quinolyloxy}ethyl)amino]pentanamide] | 0.09 nM
CC(C)(C)CNC(=O)CCCCNCCOc1cccc2nccnc12 [Compound 13, N-neopentyl-5-[(2-{5-quinoxalyloxy}ethyl)amino]pentanamide] | 0.48 nM
